From ChEMBL document CHEMBL2417385, “A new strategy for the synthesis of crucigasterin A, and cytotoxic activity of this compound and its related analogues” (Bioorg Med Chem Lett, 2013)

Legend:
Type in all cases: functional, cell-based
MCF7 = test: Cytotoxicity against human MCF7 cells after 2 days by MTT assay; settings: MCF7, 48 h
MDA-MB-231 = test: Cytotoxicity against human MDA-MB-231 cells after 2 days by MTT assay; settings: MDA-MB-231, 48 h
HeLa = test: Cytotoxicity against human HeLa cells assessed as growth inhibition after 2 days by MTT assay; settings: 48 h
A549 = test: Cytotoxicity against human A549 cells after 2 days by MTT assay; settings: A549, 48 h

SMILES | IC50 (MCF7) [µM] | IC50 (MDA-MB-231) [µM] | IC50 (HeLa) [µM] | IC50 (A549) [µM]
C=CCCCC/C=C/C=C/C[C@H](O)[C@H](C)N | > 50 | 8.03 | 5.91 | 14.7
C=CCCCCCC/C=C\C[C@H](O)[C@H](C)N | 15.5 | 10.4 | 19.2 | > 50
CCCCCC/C=C\CC/C=C/C[C@H](O)[C@H](C)N | 13.5 | 12.7 | 39.7 | 7.81
COc1cccc2c1C(=O)c1c(O)c3c(c(O)c1C2=O)C[C@@](O)(C(=O)CO)C[C@@H]3O[C@H]1C[C@H](N)[C@H](O)[C@H](C)O1 [DOXORUBICIN] | 13.5 | 0.91 | 0.509 | 0.459
